For one assay, the system named is A431 cells. As to the kind of experiment: Inhibition of A431 cell proliferation (CellTiter-Glo). It counts as cell-based. The note with it: Homo sapiens, A-431, 72 h, read-out: EGFR IC50 (nM) A431. Here is the method: 4. Experiment on the Inhibition of A431 Cell Proliferation
In this experiment, the inhibitory effect of the compounds on A431 cell proliferation was tested by a CellTiter-Glo method, and the half maximal inhibitory concentration (IC50) of the compounds on the activity of cell proliferation was determined.
The culture plate was incubated in the incubator for 16 to 24 hours (37° C., 5% CO2).
(§1) 2) Different concentrations of the test compound in a gradient dilution were added to the cells in the culture plate. The culture plate was incubated in an incubator for 72 hours (37° C., 5% CO2).
3) 50 to 100 μL of CellTiter-Glo reagent was added to each well. Then the culture plate was shaken for 10 minutes, and left to stand at room temperature for 10 minutes.
(§2) 4) The chemiluminescence signal values of each plate were determined by a microplate reader.
5) The inhibition rates were calculated according to the chemiluminescence signal values. 6) The IC50 of the compound was obtained by curve fitting according to the inhibition rates at different concentrations.
(ATP-based viability assays read luminescence as a measure of living cells.)

The target in assay [1] is exon 20 T790M mutant-type EGFR enzyme (Homo sapiens, UniProt P00533, T790M). Put plainly: Enzymologic experiment of T790M mutant-type EGFR (TR-FRET). It counts as biochemical. Conditions: for IC50: T790M EGFR enzyme, TR-FRET, ATP 1 to 10 uM; for Selectivity of wild-type/mutant-type: ratio WT IC50 / T790M IC50, enzyme. How it is done:
(§3) 2) 1 to 5 μL of diluted solution in gradient of the compound was added.
(§4) 3) The mixture was incubated for 10 minutes at room temperature.
(§5) 6) 5 μL of EDTA stop solution was added to terminate the reaction for 5 minutes.
7) […] of a test solution containing the labeled antibody was added, and the mixture was incubated at room temperature for 1 hour.
9) The inhibition rates were calculated according to the fluorescence signal values.
(§6) 10) The IC50 of the compound was obtained by curve fitting according to the inhibition rates at different concentrations.
(In TR-FRET formats the signal depends on donor and acceptor labels being close together.)

For another assay, the system named is NCI-H1975 cells. As to the kind of experiment: Inhibition of NCI-H1975 cell proliferation (CellTiter-Glo). It counts as cell-based. The note with it: for IC50: Homo sapiens, NCI-H1975, 72 h, NCI-H1975 cell proliferation, 72 hours, CellTiter-Glo, read-out: EGFR IC50 (nM) H1975; for Selectivity of wild-type/mutant-type: ratio A431 IC50 / H1975 IC50, cells. Here is the method:
3. Experiment on the Inhibition of NCI-H1975 Cell Proliferation
In this experiment, the inhibitory effect of the compounds on NCI-H1975 cell proliferation was tested by a CellTiter-Glo method, and the half maximal inhibitory concentration (IC50) of the compounds on the activity of cell proliferation was determined.
The culture plate was incubated in an incubator for 16 to 24 hours (37° C., 5% CO2).
as §1
3) 50 to 100 μL of CellTiter-Glo reagent was added to each well. Then, the culture plate was shaken for 10 minutes, and left to stand at room temperature for 10 minutes.
as §2
5) The inhibition rates were calculated according to the chemiluminescence signal values.
6) The IC50 of the compound was obtained by curve fitting according to the inhibition rates at different concentrations.

In another assay the target is wild-type EGFR enzyme (Homo sapiens, UniProt P00533). As to the kind of experiment: Enzymologic experiment of wild-type (WT) EGFR (TR-FRET). It counts as biochemical. Conditions: ATP 0.1 to 5 uM. Here is the method: 2. Enzymologic Experiment of Wild-Type (WT) EGFR
In this experiment, the inhibitory effect of compounds on wild-type EGFR enzyme was tested by a fluorescence resonance energy transfer (TR-FRET) method, and the half maximal inhibitory concentration IC50 of the compounds on enzymatic activity was determined.
1) 1 to 5 μL of wild-type EGFR enzyme solution was added to a 384-well plate, and the final concentration of the enzyme was 0.1 to 1 nM.
as §3, §4, §5
7) 5 μL of a test solution containing the labeled antibody was added, and the mixture was incubated at room temperature for 1 hour.
9) The inhibition rates were calculated from the fluorescence signal values.
as §6

Each structure is given as a SMILES string.

Broadly, the IC50 is the midpoint of a concentration-inhibition curve.

Chain of wild-type EGFR enzyme (P00533 25-1210): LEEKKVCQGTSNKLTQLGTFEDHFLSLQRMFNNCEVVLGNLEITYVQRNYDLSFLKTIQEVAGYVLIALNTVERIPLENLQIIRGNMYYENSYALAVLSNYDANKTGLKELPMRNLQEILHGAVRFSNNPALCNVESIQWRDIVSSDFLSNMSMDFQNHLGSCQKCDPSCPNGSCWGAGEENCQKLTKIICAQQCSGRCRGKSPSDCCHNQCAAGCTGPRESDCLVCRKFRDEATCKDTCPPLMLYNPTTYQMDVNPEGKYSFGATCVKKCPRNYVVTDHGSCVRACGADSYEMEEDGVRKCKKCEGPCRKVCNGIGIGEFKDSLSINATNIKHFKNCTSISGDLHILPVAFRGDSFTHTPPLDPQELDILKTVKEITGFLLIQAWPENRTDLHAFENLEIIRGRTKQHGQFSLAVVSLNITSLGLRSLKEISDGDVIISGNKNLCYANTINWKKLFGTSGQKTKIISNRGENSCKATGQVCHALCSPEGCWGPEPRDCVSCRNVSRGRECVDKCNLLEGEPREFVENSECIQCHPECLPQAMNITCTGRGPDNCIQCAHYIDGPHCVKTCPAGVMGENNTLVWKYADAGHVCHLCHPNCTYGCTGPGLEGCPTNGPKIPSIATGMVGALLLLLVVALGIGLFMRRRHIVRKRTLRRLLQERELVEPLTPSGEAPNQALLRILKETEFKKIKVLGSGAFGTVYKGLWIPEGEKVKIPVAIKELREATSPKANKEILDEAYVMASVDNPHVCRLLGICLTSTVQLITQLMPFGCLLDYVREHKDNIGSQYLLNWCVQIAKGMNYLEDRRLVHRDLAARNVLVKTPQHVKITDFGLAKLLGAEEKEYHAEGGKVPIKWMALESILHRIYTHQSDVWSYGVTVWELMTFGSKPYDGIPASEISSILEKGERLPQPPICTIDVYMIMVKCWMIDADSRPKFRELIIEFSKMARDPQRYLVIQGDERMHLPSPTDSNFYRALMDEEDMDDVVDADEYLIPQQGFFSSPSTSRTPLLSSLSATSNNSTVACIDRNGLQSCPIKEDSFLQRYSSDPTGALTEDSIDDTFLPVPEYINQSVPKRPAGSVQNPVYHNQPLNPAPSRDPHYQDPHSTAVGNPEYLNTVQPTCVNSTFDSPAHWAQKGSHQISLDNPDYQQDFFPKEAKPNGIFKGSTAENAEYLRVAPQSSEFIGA
Chain of exon 20 T790M mutant-type EGFR enzyme (P00533 25-1210 T790M): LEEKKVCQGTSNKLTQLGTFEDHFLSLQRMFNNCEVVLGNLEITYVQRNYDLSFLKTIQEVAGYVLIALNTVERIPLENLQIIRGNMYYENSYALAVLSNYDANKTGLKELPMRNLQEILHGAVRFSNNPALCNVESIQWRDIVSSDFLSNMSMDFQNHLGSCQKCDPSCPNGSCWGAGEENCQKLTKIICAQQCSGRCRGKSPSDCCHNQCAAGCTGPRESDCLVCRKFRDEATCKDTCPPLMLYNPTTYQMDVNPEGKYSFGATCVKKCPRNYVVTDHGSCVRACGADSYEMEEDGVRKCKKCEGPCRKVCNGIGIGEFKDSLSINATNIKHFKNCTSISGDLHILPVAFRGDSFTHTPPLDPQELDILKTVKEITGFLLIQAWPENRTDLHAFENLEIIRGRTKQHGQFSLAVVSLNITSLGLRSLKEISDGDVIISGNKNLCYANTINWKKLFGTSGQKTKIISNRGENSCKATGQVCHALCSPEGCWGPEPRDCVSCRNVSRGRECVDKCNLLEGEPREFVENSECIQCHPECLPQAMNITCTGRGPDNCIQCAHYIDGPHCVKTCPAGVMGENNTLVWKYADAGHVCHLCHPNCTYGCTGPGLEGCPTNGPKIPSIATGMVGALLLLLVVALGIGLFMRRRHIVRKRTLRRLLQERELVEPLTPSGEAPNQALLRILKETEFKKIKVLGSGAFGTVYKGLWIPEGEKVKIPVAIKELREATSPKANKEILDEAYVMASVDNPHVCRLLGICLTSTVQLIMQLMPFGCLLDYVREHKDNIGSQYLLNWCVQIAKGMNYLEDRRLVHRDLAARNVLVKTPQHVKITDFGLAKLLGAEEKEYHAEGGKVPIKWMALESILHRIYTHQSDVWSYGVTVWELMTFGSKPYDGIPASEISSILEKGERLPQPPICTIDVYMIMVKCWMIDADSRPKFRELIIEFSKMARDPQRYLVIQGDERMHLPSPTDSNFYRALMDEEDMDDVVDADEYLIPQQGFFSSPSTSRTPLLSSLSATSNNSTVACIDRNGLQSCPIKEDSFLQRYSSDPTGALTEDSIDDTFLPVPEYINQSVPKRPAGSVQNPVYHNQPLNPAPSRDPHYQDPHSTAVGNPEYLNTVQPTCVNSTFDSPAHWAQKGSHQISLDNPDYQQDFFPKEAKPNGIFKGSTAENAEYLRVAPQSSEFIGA

As for `C=CC(=O)Nc1cc(Nc2ncc(C(F)(F)F)c(-c3cn(S(=O)(=O)N(C)C)c4cc(OC)ccc34)n2)c(OC)cc1N(C)CCN(C)C` [Example 143, N-(2-((2-(dimethylamino)ethyl)(methyl)amino)-5-((4-(1-(N,N-dimethylsulfamoyl)-6-methoxy-1H-indol-3-yl)-5-(trifluoromethyl)pyrimidin-2-yl)amino)-4-methoxyphenyl)acrylamide], the IC50 amounted to 377 nM in the assay on A431 cells, 0.44 nM in assay [1], 8.29 nM with NCI-H1975 cells and 4.18 nM at wild-type EGFR enzyme. Besides, the figures for the Selectivity of wild-type/mutant-type (in assay [1]; in the assay on NCI-H1975 cells) were 9.50 and 45.44, respectively.
With `C=CC(=O)Nc1cc(Nc2nccc(-c3cn4c5c(cccc35)CCC4)n2)c(OC)cc1N(C)CCN(C)C` [Example 125, N-(5-((4-(5,6-dihydro-4H-pyrrolo[3,2,1-ij]quinolin-1-yl)pyrimidin-2-yl)amino)-2-((2-(dimethylamino)ethyl)(methyl)amino)-4-methoxyphenyl)acrylamide], the IC50 with A431 cells was 385 nM; in assay [1] it was 1.42 nM; in the assay with NCI-H1975 cells it was 9.58 nM; on wild-type EGFR enzyme, 13 nM. The Selectivity of wild-type/mutant-type in assay [1] amounted to 9.15; with NCI-H1975 cells, 40.18.
As to `C=CC(=O)Nc1cc(Nc2nccc(-c3cn(C)c4cc(C#N)ccc34)n2)c(OC(F)F)cc1N(C)CCN(C)C` [Example 9, N-(5-((4-(6-cyano-1-methyl-1H-indol-3-yl)pyrimidin-2-yl)amino)-4-(difluoromethoxy)-2-((2-(dimethylamino)ethyl)(methyl)amino)phenyl)acrylamide], the IC50 in the assay with A431 cells was found to be 216 nM; in assay [1], 0.39 nM; in the assay with NCI-H1975 cells, 4.58 nM; at wild-type EGFR enzyme, 2.12 nM. The Selectivity of wild-type/mutant-type in assay [1] is recorded as 5.44; with NCI-H1975 cells, 47.07.
Consider `C=CC(=O)Nc1cc(Nc2nccc(-n3nc(C4CC4)c4ccccc43)n2)c(OC)cc1N(C)CCN(C)C` [Example 44, N-(5-((4-(3-cyclopropyl-1H-indazol-1-yl)pyrimidin-2-yl)amino)-2-((2-(dimethylamino)ethyl)(methyl)amino)-4-methoxyphenyl)acrylamide], for which the 50% inhibitory concentration (IC50) came out at 406 nM with A431 cells, 0.38 nM in assay [1], 7.13 nM in the assay on NCI-H1975 cells and 2.5 nM against wild-type EGFR enzyme. The Selectivity of wild-type/mutant-type in assay [1] is 6.58; with NCI-H1975 cells it was 56.93.
As to `C=CC(=O)Nc1cc(Nc2nccc(-n3ncc4c(OC)cccc43)n2)c(OC)cc1N(C)CCN1CCCC1` [Example 135, N-(4-methoxy-5-((4-(4-methoxy-1H-indazol-1-yl)pyrimidin-2-yl)amino)-2-(methyl(2-(pyrrolidin-1-yl)ethyl)amino)phenyl)acrylamide], the IC50 with A431 cells amounted to 444 nM; in assay [1], 0.46 nM; with NCI-H1975 cells, 7.5 nM; on wild-type EGFR enzyme, 4.62 nM. Also, the results for the Selectivity of wild-type/mutant-type (in assay [1]; with NCI-H1975 cells) were 10.04 and 59.19, respectively.
Regarding `C=CC(=O)Nc1cc(Nc2nccc(-n3nc(C)c4ccc(OC)cc43)n2)c(OC)cc1N(C)CCN(C)C` [Example 54, N-(2-((2-(dimethylamino)ethyl)(methyl)amino)-4-methoxy-5-((4-(6-methoxy-3-methyl-1H-indazol-1-yl)pyrimidin-2-yl)amino)phenyl)acrylamide], the IC50 in the assay with A431 cells was determined as 71.2 nM; in assay [1], 0.36 nM; in the assay with NCI-H1975 cells it was 2.75 nM; against wild-type EGFR enzyme, 2.21 nM. Moreover, the Selectivity of wild-type/mutant-type in assay [1] was found to be 6.14; in the assay with NCI-H1975 cells, 25.90.
For the compound `C=CC(=O)Nc1cc(Nc2nccc(-n3ncc4ccccc43)n2)c(OC)cc1N(C)CCN(C)C` [Example 40, N-(5-((4-(1H-indazol-1-yl)pyrimidin-2-yl)amino)-2-((2-(dimethylamino)ethyl)(methyl)amino)-4-methoxyphenyl)acrylamide], the IC50 was 339 nM in the assay with A431 cells, 0.39 nM in assay [1], 1.95 nM in the assay with NCI-H1975 cells and 3.36 nM against wild-type EGFR enzyme. Further, the Selectivity of wild-type/mutant-type in assay [1] came to 8.62; in the assay on NCI-H1975 cells, 174.05.
In the case of `C=CC(=O)Nc1cc(Nc2nccc(-n3nc(C)c4cc(C#N)ccc43)n2)c(OC)cc1N(C)CCN(C)C` [Example 56, N-(5-((4-(5-cyano-3-methyl-1H-indazol-1-yl)pyrimidin-2-yl)amino)-2-((2-(dimethylamino)ethyl)(methyl)amino)-4-methoxyphenyl)acrylamide], the IC50 in the assay with A431 cells was 688 nM; in assay [1] it was 1.54 nM; in the assay with NCI-H1975 cells, 7.08 nM; on wild-type EGFR enzyme, 16.3 nM. In addition, the Selectivity of wild-type/mutant-type is 10.56 in assay [1] and 97.25 in the assay on NCI-H1975 cells.
`C=CC(=O)Nc1cc(Nc2nccc(-c3cn(C)c4cc(OC)ccc34)n2)c(OC)cc1N(C)CCN(C)C` [Example 25, N-(2-((2-(dimethylamino)ethyl)(methyl)amino)-4-methoxy-5-((4-(6-methoxy-1-methyl-1H-indol-3-yl)pyrimidin-2-yl)amino)phenyl)acrylamide]: the IC50 with A431 cells is 93.2 nM; in assay [1], 0.36 nM; in the assay with NCI-H1975 cells, 4.56 nM; against wild-type EGFR enzyme it was 7.11 nM. The Selectivity of wild-type/mutant-type in assay [1] is given as 19.9; with NCI-H1975 cells it was 20.45.
Regarding `C=CC(=O)Nc1cc(Nc2ncc(Cl)c(-c3cn(C)c4ccccc34)n2)c(OC(F)F)cc1N(C)CCN(C)C` [Example 5, N-(5-((5-chloro-4-(1-methyl-1H-indol-3-yl)pyrimidin-2-yl)amino)-4-(difluoromethoxy)-2-((2-(dimethylamino)ethyl)(methyl)amino)phenyl)acrylamide], the 50% inhibitory concentration (IC50) with A431 cells worked out at 212 nM; in assay [1], 0.32 nM; in the assay with NCI-H1975 cells, 5.9 nM; on wild-type EGFR enzyme, 0.8 nM. For the same compound, the Selectivity of wild-type/mutant-type stood at 2.5 in assay [1] and 36 in the assay on NCI-H1975 cells.
In the case of `C=CC(=O)Nc1cc(Nc2nccc(-c3cn(C)c4cc(OC)ccc34)n2)c(OC(F)F)cc1N(C)CCN(C)C` [Example 4, N-(4-(difluoromethoxy)-2-((2-(dimethylamino)ethyl)(methyl)amino)-5-((4-(6-methoxy-1-methyl-1H-indol-3-yl)pyrimidin-2-yl)amino)phenyl)acrylamide], the IC50 with A431 cells came out at 158 nM; in assay [1], 0.39 nM; with NCI-H1975 cells it was 10 nM; at wild-type EGFR enzyme it was 6.41 nM. For the same compound, the values for the Selectivity of wild-type/mutant-type (in assay [1]; in the assay on NCI-H1975 cells) were 16.3 and 15.78, respectively.
With `C=CC(=O)Nc1cc(Nc2nccc(-n3nc(C4CC4)c4cc(OC)ccc43)n2)c(OC)cc1N(C)CCN(C)C` [Example 113, N-(5-((4-(3-cyclopropyl-5-methoxy-1H-indazol-1-yl)pyrimidin-2-yl)amino)-2-((2-(dimethylamino)ethyl)(methyl)amino)-4-methoxyphenyl)acrylamide], the IC50 was determined as 233 nM with A431 cells, 0.36 nM in assay [1], 3.17 nM in the assay with NCI-H1975 cells and 1.62 nM against wild-type EGFR enzyme. The results for the Selectivity of wild-type/mutant-type (in assay [1]; in the assay with NCI-H1975 cells) were 4.50 and 73.42, respectively.
For `C=CC(=O)Nc1cc(Nc2nccc(-n3ncc4c(OC)cccc43)n2)c(OC)cc1N(C)CCN(C)C` [Example 41, N-(2-((2-(dimethylamino)ethyl)(methyl)amino)-4-methoxy-5-((4-(4-methoxy-1H-indazol-1-yl)pyrimidin-2-yl)amino)phenyl)acrylamide], the half-inhibitory concentration (IC50) was 138 nM with A431 cells, 0.51 nM in assay [1], 5.93 nM with NCI-H1975 cells and 2.5 nM against wild-type EGFR enzyme. Besides, the Selectivity of wild-type/mutant-type was determined as 4.90 in assay [1] and 23.36 in the assay with NCI-H1975 cells.

The values above are taken from patent US10428081B2, “EGFR inhibitor, preparation method and use thereof” (Shanghai Hansoh Biomedical Co., Ltd., priority 2014, dated 2019).
